Assay results from ChEMBL document CHEMBL3885881, “DrugMatrix”.

Species on record: Rattus norvegicus
Experiment: DrugMatrix - Regimen: Daily Repeat
Assay type: toxicity, organism-based, Sprague-Dawley
Parameters: regimen Daily Repeat, gender Male, age 6-8 weeks
Conditions: in vivo, po, route oral GAVAGE, vehicle 100 % WATER; for ABSOLUTE BASOPHIL / ABSOLUTE EOSINOPHIL / ABSOLUTE LYMPHOCYTE / ABSOLUTE MONOCYTE / ABSOLUTE SEGMENTED NEUTROPHIL / BASOPHIL / EOSINOPHIL / ERYTHROCYTE COUNT / HEMATOCRIT / HEMOGLOBIN / LEUKOCYTE COUNT / LYMPHOCYTE / MEAN CORPUSCULAR HEMOGLOBIN / MEAN CORPUSCULAR HEMOGLOBIN CONCENTRATION / MEAN CORPUSCULAR VOLUME / MONOCYTE / NEUTROPHIL / NUCLEATED RED BLOOD CELLS / PLATELET COUNT: tissue Blood; for ALANINE AMINOTRANSFERASE / ALBUMIN / ALKALINE PHOSPHATASE / ASPARTATE AMINOTRANSFERASE / BLOOD UREA NITROGEN / CARBON DIOXIDE / CHLORIDE / CHOLESTEROL / CREATINE PHOSPHOKINASE / CREATININE / GLUCOSE / LACTATE DEHYDROGENASE / LIPASE / PHOSPHORUS / POTASSIUM / SODIUM / TOTAL BILIRUBIN / TOTAL PROTEIN / URIC ACID: tissue Plasma
[1] = 0 mg/kg, 72 h, dose level Control, time 3 day
[2] = 0 mg/kg, 120 h, dose level Control, time 5 day
[3] = 100 mg/kg, 72 h, dose level Low, time 3 day
[4] = 100 mg/kg, 120 h, dose level Low, time 5 day

SMILES: C[C@](N)(Cc1ccc(O)c(O)c1)C(=O)O [METHYLDOPA]
- ABSOLUTE BASOPHIL [1]: 0 CELLS/uL
- ABSOLUTE EOSINOPHIL [1]: 46 CELLS/uL
- ABSOLUTE LYMPHOCYTE [1]: 10225.67 CELLS/uL
- ABSOLUTE MONOCYTE [1]: 319.33 CELLS/uL
- ABSOLUTE SEGMENTED NEUTROPHIL [1]: 1242.33 CELLS/uL
- BASOPHIL [1]: 0%
- EOSINOPHIL [1]: 0.33%
- ERYTHROCYTE COUNT [1]: 5.17 x10E6/uL
- HEMATOCRIT [1]: 33.43%
- HEMOGLOBIN [1]: 12.55 G/DL
- LEUKOCYTE COUNT [1]: 11.83 x10E3/uL
- LYMPHOCYTE [1]: 86.5%
- MEAN CORPUSCULAR HEMOGLOBIN [1]: 24.35 pg
- MEAN CORPUSCULAR HEMOGLOBIN CONCENTRATION [1]: 37.57 G/DL
- MEAN CORPUSCULAR VOLUME [1]: 64.8 fL
- MONOCYTE [1]: 2.67%
- NEUTROPHIL [1]: 10.5%
- NUCLEATED RED BLOOD CELLS [1]: 0.17 /100WBC
- PLATELET COUNT [1]: 1026.17 x10E3/uL
- ALANINE AMINOTRANSFERASE [1]: 52.67 u/L
- ALBUMIN [1]: 4.17 G/DL
- ALKALINE PHOSPHATASE [1]: 331 u/L
- ASPARTATE AMINOTRANSFERASE [1]: 92.33 u/L
- BLOOD UREA NITROGEN [1]: 15.33 mg/dL
- CARBON DIOXIDE [1]: 26.17 mmol/L
- CHLORIDE [1]: 103.17 MEQ/L
- CHOLESTEROL [1]: 73.67 mg/dL
- CREATINE PHOSPHOKINASE [1]: 472.83 u/L
- CREATININE [1]: 0.29 mg/dL
- GLUCOSE [1]: 178.5 mg/dL
- LACTATE DEHYDROGENASE [1]: 244.83 u/L
- LIPASE [1]: 10.67 u/L
- PHOSPHORUS [1]: 12.45 mg/dL
- POTASSIUM [1]: 6.35 MEQ/L
- SODIUM [1]: 144.27 MEQ/L
- TOTAL BILIRUBIN [1]: 0.13 mg/dL
- TOTAL PROTEIN [1]: 5.77 G/DL
- URIC ACID [1]: 2.08 mg/dL
- ABSOLUTE BASOPHIL [2]: 0 CELLS/uL
- ABSOLUTE EOSINOPHIL [2]: 23.5 CELLS/uL
- ABSOLUTE LYMPHOCYTE [2]: 12797.33 CELLS/uL
- ABSOLUTE MONOCYTE [2]: 465.5 CELLS/uL
- ABSOLUTE SEGMENTED NEUTROPHIL [2]: 1313.67 CELLS/uL
- BASOPHIL [2]: 0%
- EOSINOPHIL [2]: 0.17%
- ERYTHROCYTE COUNT [2]: 5.76 x10E6/uL
- HEMATOCRIT [2]: 36.72%
- HEMOGLOBIN [2]: 13.72 G/DL
- LEUKOCYTE COUNT [2]: 14.6 x10E3/uL
- LYMPHOCYTE [2]: 87.5%
- MEAN CORPUSCULAR HEMOGLOBIN [2]: 23.8 pg
- MEAN CORPUSCULAR HEMOGLOBIN CONCENTRATION [2]: 37.35 G/DL
- MEAN CORPUSCULAR VOLUME [2]: 63.72 fL
- MONOCYTE [2]: 3.17%
- NEUTROPHIL [2]: 9.17%
- NUCLEATED RED BLOOD CELLS [2]: 0.33 /100WBC
- PLATELET COUNT [2]: 1270.67 x10E3/uL
- ALANINE AMINOTRANSFERASE [2]: 50.5 u/L
- ALBUMIN [2]: 4.32 G/DL
- ALKALINE PHOSPHATASE [2]: 339.67 u/L
- ASPARTATE AMINOTRANSFERASE [2]: 88 u/L
- BLOOD UREA NITROGEN [2]: 17 mg/dL
- CARBON DIOXIDE [2]: 25 mmol/L
- CHLORIDE [2]: 103.83 MEQ/L
- CHOLESTEROL [2]: 71.33 mg/dL
- CREATINE PHOSPHOKINASE [2]: 281.83 u/L
- CREATININE [2]: 0.26 mg/dL
- GLUCOSE [2]: 161.67 mg/dL
- LACTATE DEHYDROGENASE [2]: 191.17 u/L
- LIPASE [2]: 10.17 u/L
- PHOSPHORUS [2]: 11.72 mg/dL
- POTASSIUM [2]: 6.76 MEQ/L
- SODIUM [2]: 145.17 MEQ/L
- TOTAL BILIRUBIN [2]: 0.2 mg/dL
- TOTAL PROTEIN [2]: 6.15 G/DL
- URIC ACID [2]: 2 mg/dL
- ABSOLUTE BASOPHIL [3]: 0 CELLS/uL
- ABSOLUTE EOSINOPHIL [3]: 0 CELLS/uL
- ABSOLUTE LYMPHOCYTE [3]: 10758.67 CELLS/uL
- ABSOLUTE MONOCYTE [3]: 142 CELLS/uL
- ABSOLUTE SEGMENTED NEUTROPHIL [3]: 1766 CELLS/uL
- BASOPHIL [3]: 0%
- EOSINOPHIL [3]: 0%
- ERYTHROCYTE COUNT [3]: 5.69 x10E6/uL
- HEMATOCRIT [3]: 36.1%
- HEMOGLOBIN [3]: 13.63 G/DL
- LEUKOCYTE COUNT [3]: 12.67 x10E3/uL
- LYMPHOCYTE [3]: 85.33%
- MEAN CORPUSCULAR HEMOGLOBIN [3]: 24.03 pg
- MEAN CORPUSCULAR HEMOGLOBIN CONCENTRATION [3]: 37.8 G/DL
- MEAN CORPUSCULAR VOLUME [3]: 63.63 fL
- MONOCYTE [3]: 1%
- NEUTROPHIL [3]: 13.67%
- NUCLEATED RED BLOOD CELLS [3]: 0 /100WBC
- PLATELET COUNT [3]: 1351.33 x10E3/uL
- ALANINE AMINOTRANSFERASE [3]: 54 u/L
- ALBUMIN [3]: 4.2 G/DL
- ALKALINE PHOSPHATASE [3]: 332.33 u/L
- ASPARTATE AMINOTRANSFERASE [3]: 92.67 u/L
- BLOOD UREA NITROGEN [3]: 19.33 mg/dL
- CARBON DIOXIDE [3]: 25.67 mmol/L
- CHLORIDE [3]: 102.67 MEQ/L
- CHOLESTEROL [3]: 84 mg/dL
- CREATINE PHOSPHOKINASE [3]: 281.67 u/L
- CREATININE [3]: 0.24 mg/dL
- GLUCOSE [3]: 161.33 mg/dL
- LACTATE DEHYDROGENASE [3]: 210.33 u/L
- LIPASE [3]: 13 u/L
- PHOSPHORUS [3]: 12.67 mg/dL
- POTASSIUM [3]: 7.2 MEQ/L
- SODIUM [3]: 145.7 MEQ/L
- TOTAL BILIRUBIN [3]: 0.23 mg/dL
- TOTAL PROTEIN [3]: 6.07 G/DL
- URIC ACID [3]: 2.93 mg/dL
- ABSOLUTE BASOPHIL [4]: 0 CELLS/uL
- ABSOLUTE EOSINOPHIL [4]: 0 CELLS/uL
- ABSOLUTE LYMPHOCYTE [4]: 9543.67 CELLS/uL
- ABSOLUTE MONOCYTE [4]: 215.33 CELLS/uL
- ABSOLUTE SEGMENTED NEUTROPHIL [4]: 1341 CELLS/uL
- BASOPHIL [4]: 0%
- EOSINOPHIL [4]: 0%
- ERYTHROCYTE COUNT [4]: 5.03 x10E6/uL
- HEMATOCRIT [4]: 32.97%
- HEMOGLOBIN [4]: 12.67 G/DL
- LEUKOCYTE COUNT [4]: 11.1 x10E3/uL
- LYMPHOCYTE [4]: 86%
- MEAN CORPUSCULAR HEMOGLOBIN [4]: 25.17 pg
- MEAN CORPUSCULAR HEMOGLOBIN CONCENTRATION [4]: 38.47 G/DL
- MEAN CORPUSCULAR VOLUME [4]: 65.47 fL
- MONOCYTE [4]: 1.67%
- NEUTROPHIL [4]: 12.33%
- NUCLEATED RED BLOOD CELLS [4]: 0 /100WBC
- PLATELET COUNT [4]: 979.33 x10E3/uL
- ALANINE AMINOTRANSFERASE [4]: 56.67 u/L
- ALBUMIN [4]: 4.1 G/DL
- ALKALINE PHOSPHATASE [4]: 363.67 u/L
- ASPARTATE AMINOTRANSFERASE [4]: 90 u/L
- BLOOD UREA NITROGEN [4]: 17 mg/dL
- CARBON DIOXIDE [4]: 24.33 mmol/L
- CHLORIDE [4]: 103.33 MEQ/L
- CHOLESTEROL [4]: 67 mg/dL
- CREATINE PHOSPHOKINASE [4]: 265.33 u/L
- CREATININE [4]: 0.56 mg/dL
- GLUCOSE [4]: 159 mg/dL
- LACTATE DEHYDROGENASE [4]: 154.33 u/L
- LIPASE [4]: 13.33 u/L
- PHOSPHORUS [4]: 11.83 mg/dL
- POTASSIUM [4]: 6.26 MEQ/L
- SODIUM [4]: 145.33 MEQ/L
- TOTAL BILIRUBIN [4]: 0.17 mg/dL
- TOTAL PROTEIN [4]: 5.8 G/DL
- URIC ACID [4]: 1.6 mg/dL
